From publication PMC10017027, “Design and Synthesis of Novel HIV-1 NNRTIs with Bicyclic Cores and with Improved Physicochemical Properties” (Journal of Medicinal Chemistry, 2023)
≈ marks a conversion by molar mass, not a printed value. Like-named read-outs stand apart in the source and are kept apart here.

Key:
[1] = Solubility assessment, shake-flask method; type: physicochemical; conditions: for solubility: shake-flask
Method: Compound solubility was measured at Analiza (Cleveland, OH) by the standard shake-flask method at pH 1.2 and 7.4 and quantitated by HPLC-UV.

HIV-1 HXB2 Y181C variant = assay: MT-4 antiviral cytopathic effect assay, HXB2-Y181C; type: cell-based
Method: (§1) The prepared compounds were tested for their anti-HIV-1 activity (Table 1). A viral cytopathic effect assay in MT-4 cells with HIV-1 IIIB virus was used to determine compound potency (EC50, 50% cell viability) in protecting virus induced cell killing. Compound cytotoxicity was assessed in MT-4 cells in the absence of virus (CC50, 50% cytotoxicity). […] ETV contains bromo and amino substitutions on the DAPY core. […] Likely, with the smaller cyano arm I in 1, 3, and 5, the cores could be further elaborated to optimize the compound position in the pocket and to improve potency.
(§2) Compounds were tested in a high-throughput 384-well assay format for their ability to inhibit the virus replication-induced cytopathic effect in MT-4 cell cultures acutely infected with HIV-1 (IIIB strain), HXB2, HXB2-K103N, and HXB2-Y181C. Compounds were serially diluted (1:3) in DMSO on 384-well polypropylene plates and further diluted 200-fold into complete RPMI media (10% FBS, 1% P/S) using Biotek Micro Flow and an Agilent ECHO acoustic dispenser. Each plate contained up to eight test compounds, with negative (no drug control) and 5 μM AZT positive controls. MT-4 cells were further diluted in complete RPMI media and added to each plate using a Micro-Flo dispenser. After five days of incubation in a humidified and temperature-controlled incubator (37 °C), Cell Titer Glo (Promega) was added to the assay plates to quantify the amount of […]. EC50 and CC50 values were defined as the compound concentration that causes a 50% decrease in luminescence signal and were calculated using a sigmoidal dose-response model to generate curve fits.

[2] = Predicted clearance in human liver microsomes; type: in vitro ADME; conditions: pH 7.4, 1 μM compound, read-out: HLM CLint, pred (converted)
Method: Next, microsome stability was profiled in purified human liver microsomes (HLM).
Metabolic stability of compounds was assessed using HLM (Corning cat. 457117).[52] In this assay, 10 nL compounds at a concentration of 1 mM in 100% DMSO are dispensed into 384-well polypropylene plates using the Echo 550 acoustic liquid dispenser (Labcyte). Each plate contains 384 wells with a single test compound in each well.
A solution of HLM at 2 mg/mL in 100 mM K2HPO4/KH2PO4 pH 7.4 with 0.0225 mg/mL Alamethicin from Trichoderma viride (Sigma-Aldrich cat. A4665-10MG) was incubated on ice for 15 min. 5 μL of this solution was added to individual wells following 15 min incubation at room temperature; and supplemented with 5 μL NADPH Regenerating Solution of cofactors (Corning Gentest UGT Reaction Mix solutions A and B, cat. 451200 and 451220) containing 100 mM K2HPO4/KH2PO4 pH 7.4, 2.6 mM NADP^+, 6.6 mM glucose-6-phosphate, 6.6 mM MgCl2, 0.8 U/mL glucose-6-phosphate dehydrogenase, 0.1 mM sodium citrate, and 6.8 mM uridine diphosphate-glucuronic acid. The final concentration of analyte compounds at the beginning of the reactions was 1 μM. The reactions were incubated at 37 °C, and time points of 0, 5, 15, 30, 40, 50, 60, and 70 min were collected for further analysis. Background data were collected using reactions without analyte compounds.
Upon collection of the reaction time points, samples were quenched at the set time points with 30 μL of a solution of 72% acetonitrile, 8% methanol, 0.1% formic acid, 19.9% water, and labetalol as an internal standard (IS) at a concentration of 650 nM. Reaction plates were span in a centrifuge at a speed of 4000 rcf for 30 min and 4 °C, following a dilution of the 10 μL quenched reaction into 40 μL de-ionized water, yielding assay plates.
Samples were analyzed by a solid-phase extraction coupled with a quadrupole time-of-flight mass spectrometer, using an Agilent QToF 6530 RapidFire 360 system with C4 type A solid state cartridges. Analysis was performed in either positive or negative ionization modes. Mobile phases contained 0.1% formic acid in water for loading analytes onto solid state extraction cartridges, and 0.1% formic acid in acetonitrile for elution into the mass spectrometer in positive ionization mode, or 0.1% acetic acid in water for loading and 0.1% acetic acid in acetonitrile for extraction in negative ionization mode. Peak-area ratios of integrated counts for individual compounds to IS were plotted as a semi-logarithmic chart of log versus time. Initial, linear portion of decay was fitted to a linear regression equation to derive the half-time of a compound decay.
Pharmacological parameters for an analyte compound metabolism were calculated using the equations described in Table S2.
Table S2. Pharmacological parameters for an analyte compound metabolism were
calculated using the following equations:
Intrinsic Clearance (in Cl = ln 2
int, in vitro T1/2 ∗ Conc
Intrinsic Clearance Cl = Clint, in vitro ∗ Liver Mass ∗ Yield
Predicted Hepatic Cl = Clint ∗ QH
QH (Hepatic Blood Flow) = 1.3 L/hr/kg

in vitro = type: cell-based; conditions: human
Method: as §1, §2

HIV-1 (IIIB strain) = assay: MT-4 antiviral cytopathic effect assay, HIV-1 IIIB; type: cell-based
Method: The prepared compounds were tested for their anti-HIV-1 activity (Table 1). A viral cytopathic effect assay in MT-4 cells with HIV-1 IIIB virus was used to determine compound potency (EC50, 50% cell viability) in protecting virus induced cell killing. Compound cytotoxicity was assessed in MT-4 cells in the absence of virus (CC50, 50% cytotoxicity).
as §2

[3] = preliminary biological data, in words

## Cc1cc(C#N)cc(C)c1N1CC(=O)Nc2cnc(Nc3ccc(C#N)cc3)nc21 [Compound 3, 4-(2-((4-Cyanophenyl)amino)-6-oxo-6,7-dihydropteridin-8(5H)-yl)-3,5-dimethylbenzonitrile]
[1]; HCl, pH 1.2, supplement CSV, read-out: HCl sol
  solubility thermodynamic: > 100 µM
[1]; HCl, pH 1.2, read-out: solubility HCl
  solubility: > 100 µM
[1]; phosphate-buffered saline, pH 7.4, read-out: solubility PBS
  solubility: 2.3 µM (≈ 0.909 µg/mL)
[1]; preliminary data, in words
  aqueous solubility: significantly improved
[1]; supplement CSV
  PBS sol: 2.3 µM
HIV-1 HXB2 Y181C variant; Human immunodeficiency virus 1, HXB2, read-out: EC50 Y181C
  EC50: 30.2 nM
HIV-1 HXB2 Y181C variant; fold change: ratio of potency against HXB2 Y181C and parental HXB2
  Y181C (FC): 3.7
HIV-1 HXB2 Y181C variant; [3]
  potency against Y181C mutated strain: high potency
HIV-1 HXB2 Y181C variant; supplement CSV, fold change vs HXB2
  Y181C (FC): 3.7
[2]
  CLint scaled at 1.167 h, 1 µM: 18.3 mL/min/kg
In vitro
  CC50 at 5 days: > 50000 nM
HIV-1 (IIIB strain); Human immunodeficiency virus 1, HXB2 / IIIB, range over HIV-1 IIIB and HXB2, read-out: EC50 against both wild-type viruses
  EC50: 8.1 to 8.6 nM
HIV-1 (IIIB strain); Human immunodeficiency virus 1, IIIB, MT4, protects 50% of MT-4 cells against HIV-1-induced cell killing, HIV-1 IIIB, WT, read-out: EC50 MT4
  EC50: 8.6 nM
HIV-1 (IIIB strain); [3]
  activity against the WT virus: low nanomolar activity
